Laboratory results: patent US9120779B2, “Inhibitors of HCV NS5A” (PRESIDIO PHARMACEUTICALS, INC., priority 2008, dated 2015)

test system: HCV genotype 1b replicon in Huh 7 cells; assay: HCV replicon assay (luciferase readout, 1b_Huh-Luc/Neo-ET cell line); format: cell-based; conditions: Hepatitis C virus, Huh-7, 72 h, read-out: Inhibition of HCV genotype 1b, Table 1, 72 h incubation
Method: Biological activity of the compounds of the invention was determined using an HCV replicon assay. The 1b_Huh-Luc/Neo-ET cell line persistently expressing a bicistronic genotype 1b replicon in Huh 7 cells was obtained from R^eBLikon GMBH. This cell line was used to test compound inhibition using luciferase enzyme activity readout as a measurement of compound inhibition of replicon levels.
On Day 1 (the day after plating), each compound is added in triplicate to the cells. Plates incubated for 72 h prior to running the luciferase assay. Enzyme activity was measured using a Bright-Glo Kit (cat. number E2620) manufactured by Promega Corporation. The following equation was used to generate a percent control value for each compound. % Control=(Average Compound Value/Average Control)*100
The EC50 value was determined using GraphPad Prism and the following equation: Y=Bottom+(Top−Bottom)/(1+10^((Log IC50−X)*HillSlope))
EC50 values of compounds are repeated several times in the replicon assay.
Example compounds of the disclosed invention are illustrated in Tables 1-9 attached as appendices. The tables show inhibitory activity of many of the example compounds with respect to HCV 1b. […] The tables further provide mass spectrometry results for the synthesized example compounds.

O=C(N[C@@H](C(=O)N1CCC[C@H]1C(=O)N[C@H]1CC[C@H](c2ccc(-c3cnc([C@@H]4CCCN4C(=O)[C@H](NC(=O)C4CC4)c4ccccc4)[nH]3)cc2)CC1)c1ccccc1)C1CC1 [compound 350] and O=C(N[C@@H](C(=O)N1CCC[C@H]1C(=O)N[C@H]1CC[C@@H](c2ccc(-c3cnc([C@@H]4CCCN4C(=O)[C@H](NC(=O)C4CC4)c4ccccc4)[nH]3)cc2)CC1)c1ccccc1)C1CC1 [compound 351] cannot be ordered by EC50: under 1 nM for the first, under 1 nM for the second.

First: CC(C)(C)OC(=O)N[C@@H](C(=O)N1CCC[C@H]1c1ncc(-c2ccc(C3CCC(c4cnc([C@@H]5CCCN5C(=O)[C@H](NC(=O)OC(C)(C)C)c5ccccc5)o4)CC3)cc2)[nH]1)c1ccccc1 (stereo partly shown) [compound 352]
Second: CC(C)(C)OC(=O)N[C@@H](C(=O)N1CCC[C@H]1c1ncc(-c2ccc(C3CCC(c4cnc([C@@H]5CCCN5C(=O)[C@H](NC(=O)OC(C)(C)C)c5ccccc5)[nH]4)CC3)cc2)[nH]1)c1ccccc1 (stereo partly shown) [compound 367]
The EC50 of the first is higher: 1 to 9.9 nM for the first, under 1 nM for the second.

O=C(N[C@@H](C(=O)N1CCC[C@H]1c1ncc(-c2ccc(C3CCC(c4cnc([C@@H]5CCCN5C(=O)[C@H](NC(=O)C5CC5)c5ccccc5)o4)CC3)cc2)[nH]1)c1ccccc1)C1CC1 (stereo partly shown) [compound 353] and O=C(N[C@@H](C(=O)N1CCC[C@H]1c1ncc(-c2ccc(C3CCC(c4cnc([C@@H]5CCCN5C(=O)[C@H](NC(=O)C5CC5)c5ccccc5)[nH]4)CC3)cc2)[nH]1)c1ccccc1)C1CC1 (stereo partly shown) [compound 371] cannot be ordered by EC50: under 1 nM for the first, under 1 nM for the second.

O=C(N[C@H]1CC[C@H](c2ccc(-c3cnc([C@@H]4CCCN4C(=O)[C@H](NC(=O)N4CCOCC4)c4ccccc4)[nH]3)cc2)CC1)[C@@H]1CCCN1C(=O)[C@H](NC(=O)N1CCOCC1)c1ccccc1 [compound 354] and O=C(N[C@H]1CC[C@@H](c2ccc(-c3cnc([C@@H]4CCCN4C(=O)[C@H](NC(=O)N4CCOCC4)c4ccccc4)[nH]3)cc2)CC1)[C@@H]1CCCN1C(=O)[C@H](NC(=O)N1CCOCC1)c1ccccc1 [compound 355] fall in the same range of EC50: 1 to 9.9 nM for the first, 1 to 9.9 nM for the second.

CC(C)[C@@H](NC(=O)OC(C)(C)C)C(=O)N1CCC[C@H]1C(=O)N[C@H]1CC[C@H](c2ccc(-c3cnc([C@@H]4CCCN4C(=O)[C@H](NC(=O)OC(C)(C)C)C(C)C)[nH]3)cc2)CC1 [compound 356] and CC(C)[C@@H](NC(=O)OC(C)(C)C)C(=O)N1CCC[C@H]1C(=O)N[C@H]1CC[C@@H](c2ccc(-c3cnc([C@@H]4CCCN4C(=O)[C@H](NC(=O)OC(C)(C)C)C(C)C)[nH]3)cc2)CC1 [compound 357] fall in the same range of EC50: 10 to 999 nM for the first, 10 to 999 nM for the second.

First: O=C(N[C@@H](C(=O)N1CCC[C@H]1c1ncc(-c2ccc(C3CCC(c4cnc([C@@H]5CCCN5C(=O)[C@H](NC(=O)N5CCOCC5)c5ccccc5)o4)CC3)cc2)[nH]1)c1ccccc1)N1CCOCC1 (stereo partly shown) [compound 358]
Second: CN1CCN(C(=O)N[C@@H](C(=O)N2CCC[C@H]2c2ncc(-c3ccc(C4CCC(c5cnc([C@@H]6CCCN6C(=O)[C@H](NC(=O)N6CCN(C)CC6)c6ccccc6)o5)CC4)cc3)[nH]2)c2ccccc2)CC1 (stereo partly shown) [compound 359]
The EC50 of the first is lower: under 1 nM for the first, 1 to 9.9 nM for the second. The first is the more potent here.

CC(C)[C@@H](NC(=O)N1CCOCC1)C(=O)N1CCC[C@H]1C(=O)N[C@H]1CC[C@H](c2ccc(-c3cnc([C@@H]4CCCN4C(=O)[C@H](NC(=O)N4CCOCC4)C(C)C)[nH]3)cc2)CC1 [compound 360] and CC(C)[C@@H](NC(=O)N1CCOCC1)C(=O)N1CCC[C@H]1C(=O)N[C@H]1CC[C@@H](c2ccc(-c3cnc([C@@H]4CCCN4C(=O)[C@H](NC(=O)N4CCOCC4)C(C)C)[nH]3)cc2)CC1 [compound 361] fall in the same range of EC50: 10 to 999 nM for the first, 10 to 999 nM for the second.

Compared with CC(C)(C)OC(=O)N[C@@H](C(=O)N1CCC[C@H]1C(=O)N[C@H]1CC[C@H](c2cccc(-c3cnc([C@@H]4CCCN4C(=O)[C@H](NC(=O)OC(C)(C)C)c4ccccc4)[nH]3)c2)CC1)c1ccccc1 [compound 362], CC(C)(C)OC(=O)N[C@@H](C(=O)N1CCC[C@H]1C(=O)N[C@H]1CC[C@@H](c2cccc(-c3cnc([C@@H]4CCCN4C(=O)[C@H](NC(=O)OC(C)(C)C)c4ccccc4)[nH]3)c2)CC1)c1ccccc1 [compound 363] is lower in EC50: 1 to 9.9 nM for the first, under 1 nM for the second. The second is the more potent here.

O=C(N[C@H]1CC[C@H](c2cccc(-c3cnc([C@@H]4CCCN4C(=O)[C@H](NC(=O)N4CCOCC4)c4ccccc4)[nH]3)c2)CC1)[C@@H]1CCCN1C(=O)[C@H](NC(=O)N1CCOCC1)c1ccccc1 [compound 364] and O=C(N[C@H]1CC[C@@H](c2cccc(-c3cnc([C@@H]4CCCN4C(=O)[C@H](NC(=O)N4CCOCC4)c4ccccc4)[nH]3)c2)CC1)[C@@H]1CCCN1C(=O)[C@H](NC(=O)N1CCOCC1)c1ccccc1 [compound 365] fall in the same range of EC50: 1 to 9.9 nM for the first, 1 to 9.9 nM for the second.

CC(C)[C@@H](NC(=O)OC(C)(C)C)C(=O)N1CCC[C@H]1c1ncc(-c2ccc(C3CCC(c4cnc([C@@H]5CCCN5C(=O)[C@H](NC(=O)OC(C)(C)C)C(C)C)[nH]4)CC3)cc2)[nH]1 (stereo partly shown) [compound 366] and CC(C)[C@H](NC(=O)OC(C)(C)C)C(=O)N1CCC[C@H]1c1ncc(-c2ccc([C@H]3CC[C@H](c4cnc([C@@H]5CCCN5C(=O)[C@@H](NC(=O)OC(C)(C)C)C(C)C)[nH]4)CC3)cc2)[nH]1 [compound 383] fall in the same range of EC50: 10 to 999 nM for the first, 10 to 999 nM for the second.

First: CC(C)(C)OC(=O)N[C@@H](C(=O)N1CCC[C@H]1C(=O)NC1CCC(c2ccc(-c3cnc([C@@H]4COCCN4C(=O)[C@H](NC(=O)OC(C)(C)C)c4ccccc4)[nH]3)cc2)CC1)c1ccccc1 (stereo partly shown) [compound 368]
Second: COC(=O)N[C@@H](C(=O)N1CCC[C@H]1c1ncc(-c2ccc([C@H]3CC[C@H](NC(=O)[C@@H]4CCCN4C(=O)[C@H](NC(=O)N4CCOCC4)c4ccccc4)CC3)cc2)[nH]1)c1ccccc1 [compound 369]
The EC50 of the first is lower: under 1 nM for the first, 1 to 9.9 nM for the second.

COC(=O)N[C@@H](C(=O)N1CCC[C@H]1c1ncc(-c2ccc([C@H]3CC[C@@H](NC(=O)[C@@H]4CCCN4C(=O)[C@H](NC(=O)N4CCOCC4)c4ccccc4)CC3)cc2)[nH]1)c1ccccc1 [compound 370] and O=C(NC1CCC(c2ccc(-c3cnc([C@@H]4COCCN4C(=O)C(NC(=O)N4CCOCC4)c4ccccc4)[nH]3)cc2)CC1)[C@@H]1CCCN1C(=O)C(NC(=O)N1CCOCC1)c1ccccc1 (stereo partly shown) [compound 372] fall in the same range of EC50: 1 to 9.9 nM for the first, 1 to 9.9 nM for the second.

COC(=O)N[C@@H](C(=O)N1CCC[C@H]1c1ncc(-c2ccc(C3CCC(c4cnc([C@@H]5CCCN5C(=O)[C@H](NC(=O)OC)c5ccccc5)[nH]4)CC3)cc2)[nH]1)c1ccccc1 (stereo partly shown) [compound 373] and COC(=O)N[C@H](C(=O)N1CCC[C@H]1c1ncc(-c2ccc(C3CCC(c4cnc([C@@H]5CCCN5C(=O)[C@@H](NC(=O)OC)c5ccccc5)[nH]4)CC3)cc2)[nH]1)c1ccccc1 (stereo partly shown) [compound 374] cannot be ordered by EC50: under 1 nM for the first, under 1 nM for the second.

COC(=O)N[C@H](Cc1ccccc1)C(=O)N1CCC[C@H]1c1ncc(C2CCC(c3ccc(-c4cnc([C@@H]5CCCN5C(=O)[C@@H](c5ccccc5)N5CCCC5)[nH]4)cc3)CC2)[nH]1 (stereo partly shown) [compound 375] and COC(=O)N[C@@H](C(=O)N1CCC[C@H]1c1ncc(C2CCC(c3ccc(-c4cnc([C@@H]5CCCN5C(=O)[C@@H](c5ccccc5)N5CCCC5)[nH]4)cc3)CC2)[nH]1)c1ccccc1 (stereo partly shown) [compound 379] cannot be ordered by EC50: under 1 nM for the first, under 1 nM for the second.

COC(=O)N[C@@H](C(=O)N1CCC[C@H]1c1ncc(-c2ccc(C3CCC(c4cnc([C@@H]5CCCN5C(=O)[C@@H](c5ccccc5)N(C)C)[nH]4)CC3)cc2)[nH]1)c1ccccc1 (stereo partly shown) [compound 376] and COC(=O)N[C@@H](C(=O)N1CCC[C@H]1c1ncc(C2CCC(c3ccc(-c4cnc([C@@H]5CCCN5C(=O)[C@@H](c5ccccc5)N(C)C)[nH]4)cc3)CC2)[nH]1)c1ccccc1 (stereo partly shown) [compound 377] cannot be ordered by EC50: under 1 nM for the first, under 1 nM for the second.

COC(=O)N[C@@H](C(=O)N1CCC[C@H]1c1ncc(C2CCC(c3ccc(-c4cnc([C@@H]5CCCN5C(=O)[C@@H](c5ccccc5)N5CCOCC5)[nH]4)cc3)CC2)[nH]1)c1ccccc1 (stereo partly shown) [compound 378] and CN(C)[C@@H](C(=O)N1CCC[C@H]1c1ncc(C2CCC(c3ccc(-c4cnc([C@@H]5CCCN5C(=O)[C@H](NC(=O)C5CC5)c5ccccc5)[nH]4)cc3)CC2)[nH]1)c1ccccc1 (stereo partly shown) [compound 380] cannot be ordered by EC50: under 1 nM for the first, under 1 nM for the second.

COC(=O)N[C@H](C(=O)N1CCC[C@H]1c1ncc(-c2ccc([C@H]3CC[C@H](c4cnc([C@@H]5CCCN5C(=O)[C@@H](NC(=O)OC)C(C)C)[nH]4)CC3)cc2)[nH]1)C(C)C [compound 381] and COC(=O)N[C@H](C(=O)N1CCC[C@H]1c1ncc(-c2ccc([C@H]3CC[C@@H](c4cnc([C@@H]5CCCN5C(=O)[C@@H](NC(=O)OC)C(C)C)[nH]4)CC3)cc2)[nH]1)C(C)C [compound 382] cannot be ordered by EC50: under 1 nM for the first, under 1 nM for the second.

CC(C)[C@H](NC(=O)OC(C)(C)C)C(=O)N1CCC[C@H]1c1ncc(-c2ccc([C@H]3CC[C@@H](c4cnc([C@@H]5CCCN5C(=O)[C@@H](NC(=O)OC(C)(C)C)C(C)C)[nH]4)CC3)cc2)[nH]1 [compound 384] was tested, and the EC50 was 10 to 999 nM.

same assay, conditions: Hepatitis C virus, Huh-7, 72 h, read-out: Inhibition of HCV genotype 1b, Table 6, 72 h incubation

In the case of COC(=O)N[C@H](C(=O)N1CCC[C@H]1c1nc2ccc(-c3ccc4nc([C@@H]5CCCN5C(=O)[C@@H](NC(=O)OC)C(C)C)[nH]c4c3)cc2[nH]1)C(C)C [Compound 850], the EC50 is reported as under 1 nM.

same assay, conditions: Hepatitis C virus, Huh-7, 72 h, read-out: Inhibition of HCV genotype 1b, Table 9, 72 h incubation

COC(=O)N[C@@H](C(=O)N1CCC[C@H]1c1nc(-c2ccc(/C=C/c3ccc(-c4cnc([C@@H]5CCCN5C(=O)[C@H](NC(=O)OC)c5ccccc5)[nH]4)cc3)cc2)c[nH]1)c1ccccc1 [Compound 2120] showed an EC50 of under 1 nM.
